US20050009840A1 (SUGEN, INC., priority 2003, published 2005)
Read-outs that look alike come from different tables or passages of the source.

Molecular target: T1, HGFR (Homo sapiens, UniProt P08581)
T1 construct: purchased Upstate 14-526
Experiment: HGFR continuous-coupled spectrophotometric assay
Type: biochemical
Conditions: for inhibition at 0.05 µM: at 50 nM, Table 5, library procedure 40, read-out: % inhibition (percent c-MET inhibition); for inhibition at 1 pM: read-out: % Inhibition (percent c-MET inhibition)

[1] = at 1 pM, Table 6, library procedure 41

T1 sequence (P08581 974-1390 limits assumed): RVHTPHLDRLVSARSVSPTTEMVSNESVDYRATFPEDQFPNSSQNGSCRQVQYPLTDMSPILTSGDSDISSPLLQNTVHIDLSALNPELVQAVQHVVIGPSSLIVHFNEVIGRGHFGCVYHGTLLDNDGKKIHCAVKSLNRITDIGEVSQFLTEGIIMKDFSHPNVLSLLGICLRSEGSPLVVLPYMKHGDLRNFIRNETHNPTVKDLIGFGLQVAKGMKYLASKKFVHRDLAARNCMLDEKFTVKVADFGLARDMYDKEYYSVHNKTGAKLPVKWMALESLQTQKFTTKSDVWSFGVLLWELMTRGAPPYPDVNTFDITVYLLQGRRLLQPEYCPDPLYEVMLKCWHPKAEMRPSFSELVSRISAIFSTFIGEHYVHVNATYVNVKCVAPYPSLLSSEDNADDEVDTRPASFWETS

Row | inhibition at 0.05 µM | inhibition at 1 pM [1] | Compound | further results
1 | 60% |  | CC1CCC(NC(=O)c2ccc(-c3cnc(N)c(OC(C)c4c(Cl)ccc(F)c4Cl)c3)cc2)CC1 [Example L-139] | 
2 | 141% |  | CC(C)OCCNC(=O)c1ccc(-c2cnc(N)c(OC(C)c3c(Cl)ccc(F)c3Cl)c2)cc1 [Example L-140] | 
3 | 79% |  | CC(Oc1cc(-c2ccc(C(=O)N3CCC(CO)CC3)cc2)cnc1N)c1c(Cl)ccc(F)c1Cl [Example L-141] | 
4 | 72% |  | CC(Oc1cc(-c2ccc(C(=O)N3CCC(CCO)CC3)cc2)cnc1N)c1c(Cl)ccc(F)c1Cl [Example L-142] | 
5 | 59% |  | CC(C)CN(C)C(=O)c1ccc(-c2cnc(N)c(OC(C)c3c(Cl)ccc(F)c3Cl)c2)cc1 [Example L-143] | 
6 | 71% |  | Cc1cccc(CN(C)C(=O)c2ccc(-c3cnc(N)c(OC(C)c4c(Cl)ccc(F)c4Cl)c3)cc2)n1 [Example L-144] | 
7 | 77% |  | COC(=O)CN(C)C(=O)c1ccc(-c2cnc(N)c(OC(C)c3c(Cl)ccc(F)c3Cl)c2)cc1 [Example L-145] | 
8 | 89% |  | CC(Oc1cc(-c2ccc(C(=O)N3CCN(CC(=O)N(C)C)CC3)cc2)cnc1N)c1c(Cl)ccc(F)c1Cl [Example L-146] | 
9 | 96% |  | CC(Oc1cc(-c2ccc(C(=O)N3CCN(C4CCN(C)CC4)CC3)cc2)cnc1N)c1c(Cl)ccc(F)c1Cl [Example L-147] | 
10 | 62% |  | CC(Oc1cc(-c2ccc(C(=O)NCc3ccc(C(F)(F)F)nc3)cc2)cnc1N)c1c(Cl)ccc(F)c1Cl [Example L-148] | 
11 | 81% |  | CC(Oc1cc(-c2ccc(C(=O)NCCCc3c[nH]nc3O)cc2)cnc1N)c1c(Cl)ccc(F)c1Cl [Example L-150] | 
12 | 58% |  | CC(Oc1cc(-c2ccc(C(=O)N3CCC(Oc4ccccc4)CC3)cc2)cnc1N)c1c(Cl)ccc(F)c1Cl [Example L-151] | 
13 | 95% |  | CC(Oc1cc(-c2ccc(C(=O)N3CCS(=O)(=O)CC3)cc2)cnc1N)c1c(Cl)ccc(F)c1Cl [Example L-153] | 
14 | 77% |  | CC(Oc1cc(-c2ccc(C(=O)NCCN3[C@H](C)CCC[C@@H]3C)cc2)cnc1N)c1c(Cl)ccc(F)c1Cl (stereo partly drawn) [Example L-154] | 
15 | 66% |  | CC(Oc1cc(-c2ccc(C(=O)NCC3(N(C)C)CCOCC3)cc2)cnc1N)c1c(Cl)ccc(F)c1Cl [Example L-155] | 
16 | 73% |  | CC(Oc1cc(-c2ccc(C(=O)NC3CCOCC3)cc2)cnc1N)c1c(Cl)ccc(F)c1Cl [Example L-156] | 
17 | 77% |  | C#CCCN1CCN(C(=O)c2ccc(-c3cnc(N)c(OC(C)c4c(Cl)ccc(F)c4Cl)c3)cc2)CC1 [Example L-157] | 
18 | 63% |  | CC(Oc1cc(-c2ccc(C(=O)Nc3ccc(-n4ccnc4)cc3)cc2)cnc1N)c1c(Cl)ccc(F)c1Cl [Example L-158] | 
19 | 78% |  | CC(Oc1cc(-c2ccc(C(=O)NCC(c3cccnc3)N(C)C)cc2)cnc1N)c1c(Cl)ccc(F)c1Cl [Example L-159] | 
20 | 79% |  | CC(Oc1cc(-c2ccc(C(=O)N3CCC(c4cccnc4)C3)cc2)cnc1N)c1c(Cl)ccc(F)c1Cl [Example L-161] | 
21 | 66% |  | CC(Oc1cc(-c2ccc(C(=O)NCCC3CCOCC3)cc2)cnc1N)c1c(Cl)ccc(F)c1Cl [Example L-162] | 
22 | 83% |  | CC(Oc1cc(-c2ccc(C(=O)N3CCN(CCS(C)(=O)=O)CC3)cc2)cnc1N)c1c(Cl)ccc(F)c1Cl [Example L-163] | 
23 | 61% |  | CC(Oc1cc(-c2ccc(C(=O)NC(CO)c3cccnc3)cc2)cnc1N)c1c(Cl)ccc(F)c1Cl [Example L-164] | 
24 | 88% |  | CC(Oc1cc(-c2ccc(C(=O)N3CCN(CC4CCN(C)CC4)CC3)cc2)cnc1N)c1c(Cl)ccc(F)c1Cl [Example L-165] | 

Row | inhibition at 0.05 µM | inhibition at 1 pM [1] | Compound | further results
25 | 67% |  | CC(Oc1cc(-c2ccc(C(=O)NCCc3nc(-c4ccncc4)c[nH]3)cc2)cnc1N)c1c(Cl)ccc(F)c1Cl [Example L-166] | 
26 | 66% |  | CCNC(=O)c1ccc(-c2cnc(N)c(OC(C)c3c(Cl)ccc(F)c3Cl)c2)cc1 [Example L-167] | 
27 | 90% |  | CC(Oc1cc(-c2ccc(C(=O)N3CCNC(=O)C3)cc2)cnc1N)c1c(Cl)ccc(F)c1Cl [Example L-168] | 
28 | 79% |  | COC1CCN(C(=O)c2ccc(-c3cnc(N)c(OC(C)c4c(Cl)ccc(F)c4Cl)c3)cc2)CC1 [Example L-169] | 
29 | 77% |  | CC(Oc1cc(-c2ccc(C(=O)NCCCN(C)C3CCCCC3)cc2)cnc1N)c1c(Cl)ccc(F)c1Cl [Example L-170] | 
30 | 69% |  | CC(Oc1cc(-c2ccc(C(=O)NCCN(C)C3CCCCC3)cc2)cnc1N)c1c(Cl)ccc(F)c1Cl [Example L-171] | 
31 | 79% |  | CC(Oc1cc(-c2ccc(C(=O)N3CCC(CO)C3)cc2)cnc1N)c1c(Cl)ccc(F)c1Cl [Example L-172] | 
32 | 63% |  | CC(Oc1cc(-c2ccc(C(=O)NCC3CCOCC3)cc2)cnc1N)c1c(Cl)ccc(F)c1Cl [Example L-173] | 
33 | 68% |  | C[C@H](Oc1cc(-c2ccc(C(=O)N[C@H]3CC[C@H](CO)CC3)cc2)cnc1N)c1c(Cl)ccc(F)c1Cl [Example L-174] | 
34 | 60% |  | CC(Oc1cc(-c2ccc(C(=O)N3CCC(COCC4CC4)CC3)cc2)cnc1N)c1c(Cl)ccc(F)c1Cl [Example L-175] | 
35 | 51% |  | Cc1noc([C@H]2CC[C@H](CNC(=O)c3ccc(-c4cnc(N)c(O[C@@H](C)c5c(Cl)ccc(F)c5Cl)c4)cc3)CC2)n1 [Example L-176] | 
36 |  | 26% | Nc1ncc(C(=O)NCCCN2CCOCC2)cc1OCc1c(Cl)cccc1Cl [Example L-177] | 
37 |  | 30% | Nc1ncc(C(=O)NCc2ccc(S(N)(=O)=O)cc2)cc1OCc1c(Cl)cccc1Cl [Example L-178] | 
38 |  | 24% | CN1CCN(CCCNC(=O)c2cnc(N)c(OCc3c(Cl)cccc3Cl)c2)CC1 [Example L-179] | 
39 |  | 26% | Nc1ncc(C(=O)NCCCO)cc1OCc1c(Cl)cccc1Cl [Example L-180] | 
40 |  | 31% | Nc1ncc(C(=O)NCCN2CCOCC2)cc1OCc1c(Cl)cccc1Cl [Example L-181] | 
41 |  | 27% | Nc1ncc(C(=O)NC(CO)Cc2ccc(Cl)cc2)cc1OCc1c(Cl)cccc1Cl [Example L-182] | 
42 |  | 32% | COc1ccccc1CNC(=O)c1cnc(N)c(OCc2c(Cl)cccc2Cl)c1 [Example L-183] | 
43 |  | 27% | Nc1ncc(C(=O)NC2CCN(Cc3ccccc3)C2)cc1OCc1c(Cl)cccc1Cl [Example L-184] | 
44 |  | 29% | Nc1ncc(C(=O)NCCc2c[nH]cn2)cc1OCc1c(Cl)cccc1Cl [Example L-185] | 
45 |  | 30% | CN(C)c1ccc(CNC(=O)c2cnc(N)c(OCc3c(Cl)cccc3Cl)c2)cc1 [Example L-186] | 
46 |  | 30% | Nc1ncc(C(=O)NCCc2ccc(S(N)(=O)=O)cc2)cc1OCc1c(Cl)cccc1Cl [Example L-187] | 
47 |  | 39% | NC(=O)C1CCCN(C(=O)c2cnc(N)c(OCc3c(Cl)cccc3Cl)c2)C1 [Example L-188] | 
48 |  | 35% | Nc1ncc(C(=O)NC2CCSC2=O)cc1OCc1c(Cl)cccc1Cl [Example L-189] | 

Row | inhibition at 0.05 µM | inhibition at 1 pM [1] | Compound | further results
49 |  | 35% | CC(=O)NCCNC(=O)c1cnc(N)c(OCc2c(Cl)cccc2Cl)c1 [Example L-190] | 
50 |  | 38% | CN(C)CC(C)(C)CNC(=O)c1cnc(N)c(OCc2c(Cl)cccc2Cl)c1 [Example L-191] | 
51 |  |  | CCC(=O)C(c1ccccc1)C1CCN(C(=O)c2cnc(N)c(OCc3c(Cl)cccc3Cl)c2)CC1 [Example L-192] | inhibition at 1 pM: 44%
52 |  | 37% | N#CC1(c2ccccc2)CCN(C(=O)c2cnc(N)c(OCc3c(Cl)cccc3Cl)c2)CC1 [Example L-193] | 
53 |  | 35% | Nc1ncc(C(=O)N2CCC(O)CC2)cc1OCc1c(Cl)cccc1Cl [Example L-194] | 
54 |  | 37% | Nc1ncc(C(=O)NCc2ccc(O)cc2)cc1OCc1c(Cl)cccc1Cl [Example L-195] | 
55 |  | 34% | Nc1ncc(C(=O)N2CCN(c3ccccn3)CC2)cc1OCc1c(Cl)cccc1Cl [Example L-196] | 
56 |  | 36% | Nc1ncc(C(=O)NCc2ccccc2Br)cc1OCc1c(Cl)cccc1Cl [Example L-197] | 
57 |  | 59% | COc1ccc(CNC(=O)c2cnc(N)c(OCc3c(Cl)cccc3Cl)c2)c(OC)c1 [Example L-198] | 
58 |  | 33% | Nc1ncc(C(=O)NCCc2ccccc2F)cc1OCc1c(Cl)cccc1Cl [Example L-199] | 
59 |  | 31% | Nc1ncc(C(=O)NCc2ccccc2OC(F)(F)F)cc1OCc1c(Cl)cccc1Cl [Example L-200] | 
60 |  | 30% | CC(C)NC(=O)CN1CCN(C(=O)c2cnc(N)c(OCc3c(Cl)cccc3Cl)c2)CC1 [Example L-201] | 
61 |  | 33% | Nc1ncc(C(=O)N2CCN(CCOCCO)CC2)cc1OCc1c(Cl)cccc1Cl [Example L-202] | 
62 |  | 33% | CCN(CC)C(=O)C1CCCN(C(=O)c2cnc(N)c(OCc3c(Cl)cccc3Cl)c2)C1 [Example L-203] | 
63 |  | 51% | Nc1ncc(C(=O)N2CCN(CCO)CC2)cc1OCc1c(Cl)cccc1Cl [Example L-204] | 
64 |  | 32% | CN1CCN(C(=O)c2cnc(N)c(OCc3c(Cl)cccc3Cl)c2)CC1 [Example L-205] | 
65 |  | 32% | Nc1ncc(C(=O)N2CCN(CC(=O)N3CCCC3)CC2)cc1OCc1c(Cl)cccc1Cl [Example L-206] | 
66 |  | 33% | Nc1ncc(C(=O)N2CCCCC2CCO)cc1OCc1c(Cl)cccc1Cl [Example L-207] | 
67 |  | 27% | COc1ccc(C(NC(=O)c2cnc(N)c(OCc3c(Cl)cccc3Cl)c2)C2CC2)cc1 [Example L-208] | 
68 |  | 31% | Nc1ncc(C(=O)N2CCN(CCCO)CC2)cc1OCc1c(Cl)cccc1Cl [Example L-209] | 
69 |  | 39% | CC(C)(CO)CNC(=O)c1cnc(N)c(OCc2c(Cl)cccc2Cl)c1 [Example L-210] | 
70 |  | 31% | Nc1ncc(C(=O)N2CCN(CC(=O)N3CCOCC3)CC2)cc1OCc1c(Cl)cccc1Cl [Example L-211] | 
71 |  | 36% | Nc1ncc(C(=O)NCCc2c[nH]c3ccc(Cl)cc23)cc1OCc1c(Cl)cccc1Cl [Example L-212] | 
